In test [1] the test system is Enterococcus faecalis DSM 16431. As to the kind of experiment: MBC of planktonic E. faecalis at different initial bacterial densities. The format is cell-based. The method, then: The antibacterial susceptibility of planktonic bacteria was determined by the broth microdilution method according to the standard M07-A1 ([CLSI, 2018]) and optimized as described previously ([Marek et al., 2015]; [Dolezal et al., 2016]). All antibacterial compounds were dissolved in dimethyl sulfoxide (DMSO p.a., Sigma-Aldrich, Prague, Czechia). The wells of the 96-well microtiter plates contained 200 μL of Mueller-Hinton broth (MHB, HiMedia, Cadersky-Envitek, Prague, Czechia) with two-fold serial dilutions of the QACs (500–0.49 μmol/L) and were inoculated with 10 μL of exponentially grown bacterial suspension adjusted densitometrically to match 0.5 McFarland scale. […] The MBCs were determined for all prepared compounds as the concentrations that provided ≥99.9% decrease in the bacterial number after subculture of 10 μL aliquots from each microtiter well in a corresponding new microtiter plate where each well contained 200 μL of fresh MHB. The MBC was determined as the lowest concentration which corresponded to a well without visible bacterial growth after a further 24 h of incubation at 35 ± 1°C. To ensure that no bacteria had survived, the content of the well was inoculated on an agar plate to confirm the absence of bacterial growth.
To evaluate the effect of bacterial density on the antibacterial activity of the QACs, E. faecalis suspensions from an overnight culture were prepared in the range from 10^6 to 10^10 CFU/mL in Brain Heart Infusion broth (BHI, VWR International BVBA, Leuven, Belgium) by either diluting or concentrating bacterial suspensions. The MBCs corresponding to E. faecalis suspensions with different initial bacterial densities were determined only for the compound A14 in the concentration range between 500 and 0.49 μM prepared by 2-fold serial dilutions. The MBCs were evaluated as described above after the bacteria were exposed to the QACs for 3 min, 60 min or 24 h. The growth rate of tested E. faecalis suspensions at different initial bacterial densities was monitored every 30 min during 7 h of incubation by measuring the optical density (OD600). The values were fitted with the logistic equation

Test [2] deals with E. faecalis plankton and biofilm. As to the kind of experiment: Comparison of effectiveness in plankton and biofilm (matched fraction of dead cells). The format is cell-based, Enterococcus faecalis. The settings on record: high density E. faecalis suspension 2.4 × 10^9 CFU/mL. From the text:
In plankton suspensions we were able to reach bactericidal concentration for all tested QACs. The situation was quite different in biofilms. The concentrations that work in plankton were not sufficient to kill all bacteria in the biofilm. […] Unfortunately, due to the solubility limit, it was not possible to increase the concentration of the QACs to concentrations that would kill all bacteria in the biofilm. Nevertheless, we can compare the effectiveness in plankton and biofilm if we decrease the concentration of biocide in the plankton to match the fraction of the dead cells in the biofilm. […] The experiment was performed at high density E. faecalis suspensions (2.4 × 10^9 CFU/mL) to mimic the high density of bacteria in a biofilm. By comparing QACs effectiveness at high initial planktonic densities we have largely eliminated the effect of the bacterial density and estimated the effect of biofilm induced changes on QACs sensitivity. One has to be careful, however, as bacterial cells in plankton differ from biofilm not only in cell density but also in cell metabolism and extracellular matrix viscoelasticity. To match the fraction of dead cells in the biofilm, the 10-fold dilution of compounds A14 and B14 were needed, whereas only 4-fold dilution of compound C14 was required. […] The activity of QACs in biofilms relative to plankton was two orders of magnitude […] than usually reported in the literature. Although our biofilms were mature, they were relatively thin (up to 10 μm) which may explain the relatively high efficiency of the QACs against biofilms. Similar observations have been made for S. mutans biofilms, where biofilm cells were only 8 times less susceptible to QACs compared to plankton bacteria ([López Pérez et al., 2017]).

Read-outs that look alike come from different tables or passages of the source.

In general, MBC refers to the lowest tested concentration that kills the bacteria rather than only halting them. With `CCCCCCCCCCCCCC[n+]1ccccc1` [Compound A14], the MBC in test [1] (DSM16431, 0.05 h, 3 min exposure, initial CFU/mL 10^6, read-out: MBC 3 min) is 63 µM; in test [1] (DSM16431, 0.05 h, 3 min exposure, initial CFU/mL 10^7, read-out: MBC 3 min) it was 63 µM; in test [1] (DSM16431, 0.05 h, 3 min exposure, initial CFU/mL 10^8, read-out: MBC 3 min) it was 31 to 63 µM; in test [1] (DSM16431, 0.05 h, 3 min exposure, initial CFU/mL 10^9, read-out: MBC 3 min), 250 µM; in test [1] (DSM16431, 0.05 h, 3 min exposure, initial CFU/mL 10^10, read-out: MBC 3 min), above 250 µM; in test [1] (DSM16431, 1 h, 60 min exposure, initial CFU/mL 10^6, read-out: MBC 60 min), 31 µM. Moreover, the minimum bactericidal concentration (MBC) was 31 µM in test [1] (DSM16431, 1 h, 60 min exposure, initial CFU/mL 10^7, read-out: MBC 60 min); 63 µM in test [1] (DSM16431, 1 h, 60 min exposure, initial CFU/mL 10^8, read-out: MBC 60 min); 125 µM in test [1] (DSM16431, 1 h, 60 min exposure, initial CFU/mL 10^9, read-out: MBC 60 min); 250 µM in test [1] (DSM16431, 1 h, 60 min exposure, initial CFU/mL 10^10, read-out: MBC 60 min); 16 to 31 µM in test [1] (DSM16431, 24 h, 24 h exposure, initial CFU/mL 10^6, read-out: MBC 24 h); 16 to 31 µM in test [1] (DSM16431, 24 h, 24 h exposure, initial CFU/mL 10^7, read-out: MBC 24 h). For the same molecule, the MBC in test [1] (DSM16431, 24 h, 24 h exposure, initial CFU/mL 10^8, read-out: MBC 24 h) was 31 µM; in test [1] (DSM16431, 24 h, 24 h exposure, initial CFU/mL 10^9, read-out: MBC 24 h) it was 31 to 63 µM; in test [1] (DSM16431, 24 h, 24 h exposure, initial CFU/mL 10^10, read-out: MBC 24 h), 250 µM; in test [1] (DSM16431, 24 h, after 24 h, 10^6 CFU/ml initial bacterial density, read-out: relative MBC value per bacterial cell), 2.1e-05 µM; in test [1] (DSM16431, 24 h, after 24 h, 10^10 CFU/ml initial bacterial density, read-out: relative MBC value per bacterial cell) it was 2.7e-08 µM. In addition, in test [2], the “dilution in plankton needed to match the fraction of dead cells in the biofilm” value amounted to 10 fold.

Source of the values: publication PMC7606276, “The Antibacterial Effects of New N-Alkylpyridinium Salts on Planktonic and Biofilm Bacteria” (Frontiers in Microbiology, 2020).
